# Source: US4127720A, “Pyrimido[2,1-a]isoquinoline derivatives having antiallergy activity” (priority 1977, dated 1978)
# Where two headings read alike, the source gives them in different places.
# Columns and labels:
# [1] = test system: reagin-mediated rat Passive Cutaneous Anaphylaxis (PCA); assay: Reagin-mediated rat Passive Cutaneous Anaphylaxis (PCA) screening test; format: in vivo, Sprague-Dawley rats
# Protocol: The reagin-mediated rat Passive Cutaneous Anaphylaxis (PCA) screening test used to evaluate the present compounds is generally regarded as one of the best animal models for use in predicting the antiallergy activity of test compounds in man. Briefly, the method consists of passive sensitization of skin sites on the test animals with reaginic antibodies followed after 24 hours by administration of the test drug and antigen challenge. The allergic response is measured by use of Evans' blue dye and is evaluated by the spot diameter at the injection side. Details of the test are provided below.
# A substituted ovalbumin antigen is used both as immunogen and challenging antigen. The antigen is prepared as follows: 500 mg. ovalbumin (EA) and 500 mg. K2 CO3 are dissolved in 25 ml. distilled H2 O and stirred at room temperature for 5 minutes. Five hundred (500) mg. dinitrobenzene sulfonic acid, Na^+ salt, (previously recrystallized from hot absolute ethanol) is then added slowly with continued stirring. The reaction mixture is then immediately placed in the dark and allowed to proceed for 2 hours with constant stirring. After 2 hours the mixture is placed in suitable dialysis tubing and dialyzed against 5 changes (4 liters each) of distilled H2 O at 5° C. After dialysis the product is lyophilized and stored at room temperature in a brown or amber container. The antigen obtained will appear as a light yellow, amorphous solid which is very soluble in water or saline. It is designated as DNP denatured ovalbumin (DNP-d EA).
# Adult, male Sprague-Dawley rats are used as a source or reagin-rich antisera for the PCA model. Immunization is by a combination of DNP-d EA on Al(OH)3 gel and B. pertussis vaccine. Preparation of the DNP-d EA - gel immunogen is as follows: Dissolve the DNP-d EA in TBS so as to give a concentration of 10 mg./ml. Slowly add 1 ml. of this solution to 10 ml. Al(OH)3 gel (10 mg. solids/ml.) with constant stirring at room temperature. Stir the mixture an additional 30 minutes to insure a uniform adsorption of antigen on gel.
# The resulting preparation is then used in combination with phase I B. pertussis vaccine to immunize male S/D rats as follows: For each rat administer 0.1 ml. DNP-d EA - gel suspension intramuscularly in each hind leg (200 μg DNP-d EA and 2 mg. gel total dose). Follow these injections by the intraperitoneal administration of 1.0 ml. B. pertussis vaccine (10-20 × 10^9 organisms). The use of light ether anesthesia during this procedure is recommended to insure proper intramuscular and intraperitoneal injections. Nine days following immunization (but no longer than 10) the animals are exsanguinated by cardiac puncture or abdominal aorta cannulation under ether or pentobarbital anesthesia. The collected whole blood is allowed to clot, the serum separated by centrifugation and the individual serum samples stored frozen until assayed for IgE content.
# Individual serum samples should be screened for reaginic antibody concentration before being pooled with other sera, as not all rats respond to immunization procedures with reagin production. A 1:50 saline dilution of serum from each immunized rat is used for this purpose. Intradermal injections of 0.05 ml. of the diluted sera are made in the shaven backs of two small female recipient rats, 100-120 gms. Several serum samples can be tested simultaneously in recipient animals. After a 24 to 48 hour latent period antigen challenge is accomplished by intravenous administration to each rat of 1 mg. DNP-d EA in 0.5 ml. 0.5% Evans' blue dye in saline. Sera which show positive PCA reactions at the 1:50 dilution, as measured 20 to 30 minutes post-challenge are pooled, dispensed in small aliquots and stored at -70° C. or lower until used. Negative sera may be discarded.
# The IgE titer of the antisera pool should then be determined. […]
# [2] = cited from earlier work
# [3] = test system: release of mediators, e.g. histamine and SRS-A; conditions: administered to asthmatic patients prior to inhalation of specific antigens; cited from earlier work
# [4] = iv, 1-5 minutes prior to antigen challenge (DSCG: at the time of antigen challenge), read-out: Rat PCA Test ID50, i.v. (dose of compound that inhibits 50% of the response)
# [5] = po, 10 minutes prior to antigen challenge, Table II and its footnote, read-out: Rat PCA Test ID50, p.o. (dose of compound that inhibits 50% of the response)
# [6] = po, 10 minutes prior to antigen challenge, Table 1, read-out: Rat PCA Test ID50, p.o. (dose of compound that inhibits 50% of the response)
SMILES,"ED50 [1, 4] [mg/kg]","ED50 [1, 5] [mg/kg]","ED50 ([1]; po, DSCG dosed 30 minutes prior to challenge, Table 1, read-out: Rat PCA Test ID50, p.o. (DSCG)) [mg/kg]",oral absorption [2],"inhibition of release of mediators, e.g. histamine and SRS-A [3]","ED50 [1, 6] [mg/kg]"
"O=C(O)c1cc(=O)c2c(OCC(O)COc3cccc4oc(C(=O)O)cc(=O)c34)cccc2o1 [DSCG, disodium cromoglycate, reference compound]",0.6,> 30,> 30,not orally absorbed,inhibits the release of mediators,–
"CC(C)C(=O)Oc1ccc2c(c1)-c1ncc(C(=O)O)c(=O)n1CC2 [Example 21, 10-Isobutyryloxy-6,7-dihydro-4-oxo-4H-pyrimido[2,1-a]isoquinoline-3-carboxylic Acid]",–,–,–,–,–,~0.5
"COc1cc2c(cc1OC)-c1ncc(-c3nnn[nH]3)c(=O)n1CC2 [Example 24, 6,7-Dihydro-9,10-dimethoxy-3-(1H-tetrazol-5-yl)-4H-pyrimido[2,1-a]isoquinol-4-one]",–,–,–,–,–,~0.03
"CCc1cn2c(=O)c(-c3nnn[nH]3)cnc2c2ccccc12 [Example 25, 7-Ethyl-3-(1H-tetrazol-5-yl)-4H-pyrimido[2,1-a]isoquinol-4-one]",0.009,0.04,–,–,–,–
